“And” between values parts separate entries of the source, which are not always exact repeats. Identical values can stand only once.
Assays:
[1] = biological target: Neuronal acetylcholine receptor subunit alpha-2 (Rattus norvegicus, UniProt P12389)
[2] = biological target: Neuronal acetylcholine receptor subunit alpha-3 (Rattus norvegicus, UniProt P04757)
[3] = biological target: Neuronal acetylcholine receptor subunit alpha-4 (Rattus norvegicus, UniProt P09483)
[4] = biological target: Nicotinic acetylcholine receptor (Rattus norvegicus)

Sequence of Neuronal acetylcholine receptor subunit alpha-2 (P12389 whole entry): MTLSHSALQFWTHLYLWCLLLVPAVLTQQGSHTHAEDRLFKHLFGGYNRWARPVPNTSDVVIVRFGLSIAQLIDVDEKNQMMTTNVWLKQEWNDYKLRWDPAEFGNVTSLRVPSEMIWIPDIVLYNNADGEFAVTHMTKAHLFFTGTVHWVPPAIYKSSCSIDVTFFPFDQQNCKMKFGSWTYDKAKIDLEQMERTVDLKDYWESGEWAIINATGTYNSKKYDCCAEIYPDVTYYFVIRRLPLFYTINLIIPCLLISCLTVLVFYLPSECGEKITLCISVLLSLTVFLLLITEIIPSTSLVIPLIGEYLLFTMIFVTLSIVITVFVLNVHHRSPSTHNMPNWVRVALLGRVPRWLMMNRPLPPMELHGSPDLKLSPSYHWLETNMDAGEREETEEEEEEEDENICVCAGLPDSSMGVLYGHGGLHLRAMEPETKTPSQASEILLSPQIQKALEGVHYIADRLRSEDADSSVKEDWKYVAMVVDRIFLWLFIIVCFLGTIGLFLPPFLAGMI
Sequence of Neuronal acetylcholine receptor subunit alpha-3 (P04757 whole entry): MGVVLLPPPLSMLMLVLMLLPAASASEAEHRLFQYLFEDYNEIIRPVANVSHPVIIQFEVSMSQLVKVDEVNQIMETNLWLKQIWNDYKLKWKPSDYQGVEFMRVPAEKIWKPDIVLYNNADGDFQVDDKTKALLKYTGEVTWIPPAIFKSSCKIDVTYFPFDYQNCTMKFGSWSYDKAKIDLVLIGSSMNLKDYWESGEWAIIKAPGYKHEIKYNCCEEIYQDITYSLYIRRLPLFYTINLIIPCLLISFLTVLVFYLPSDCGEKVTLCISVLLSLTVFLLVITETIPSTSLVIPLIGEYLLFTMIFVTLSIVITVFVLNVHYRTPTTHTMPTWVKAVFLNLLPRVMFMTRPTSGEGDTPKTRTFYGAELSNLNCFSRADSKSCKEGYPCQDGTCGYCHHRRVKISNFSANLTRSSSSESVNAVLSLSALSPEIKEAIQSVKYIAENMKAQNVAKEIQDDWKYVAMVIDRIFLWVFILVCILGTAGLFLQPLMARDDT
Sequence of Neuronal acetylcholine receptor subunit alpha-4 (P09483 whole entry): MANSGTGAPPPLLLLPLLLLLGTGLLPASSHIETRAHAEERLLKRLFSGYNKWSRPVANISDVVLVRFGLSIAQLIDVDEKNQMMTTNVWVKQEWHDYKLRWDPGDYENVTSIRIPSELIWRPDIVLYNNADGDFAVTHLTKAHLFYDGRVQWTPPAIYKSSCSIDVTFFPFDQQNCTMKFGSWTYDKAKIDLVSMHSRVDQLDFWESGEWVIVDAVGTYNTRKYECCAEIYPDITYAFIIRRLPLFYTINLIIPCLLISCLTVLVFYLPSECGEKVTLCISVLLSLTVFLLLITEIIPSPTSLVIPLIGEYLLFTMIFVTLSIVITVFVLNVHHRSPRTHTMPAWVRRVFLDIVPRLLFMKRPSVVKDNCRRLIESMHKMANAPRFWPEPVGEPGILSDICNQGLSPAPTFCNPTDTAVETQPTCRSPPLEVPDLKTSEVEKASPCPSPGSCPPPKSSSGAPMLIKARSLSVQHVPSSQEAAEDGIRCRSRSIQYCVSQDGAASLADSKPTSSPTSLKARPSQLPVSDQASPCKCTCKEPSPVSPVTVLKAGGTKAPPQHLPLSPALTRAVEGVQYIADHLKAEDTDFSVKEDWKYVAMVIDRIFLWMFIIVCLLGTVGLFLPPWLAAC

`CO[C@H]1CC=C2CCN3CCC4=C(CC(=O)OC4)[C@]23C1` was tested, and the Ki [1] was 6200 nM and > 10000 nM and the Ki [2] was 3800 nM and > 10000 nM.

For `CC(=O)OCC[N+](C)(C)C` [2-acetoxyethyl(trimethyl)ammonium;perchlorate], the Ki [1] was 11 nM.

In the case of `C[N+](C)(C)CCO` [2-hydroxy-N,N,N-trimethylethanaminium], the Ki [3] is reported as greater than 10000 nM, the Ki [1] is reported as greater than 10000 nM and the Ki [2] is reported as greater than 10000 nM.

`C[N+](C)(C)CCOC(N)=O` [(2-Hydroxyethyl)trimethyl ammonium chloride carbamate] was tested, and the Ki [3] was 590 nM and 1100 nM, the Ki [1] was 260 nM and 930 nM and the Ki [2] was 1100 nM and 4700 nM.

`c1cncc(OCC2CCN2)c1` (stereo unspecified) [A-85380] gave a Ki [1] of 18 nM.

`O=c1cccc2n1CC1CNCC2C1` (stereo unspecified) [CAS_485-35-8] was tested, and the Ki [3] was 1.5 nM and 2.1 nM, the Ki [1] was 1.1 nM and 5.4 nM and the Ki [2] was 37 nM and 220 nM.

In the case of `CCN1CC2(COC(=O)c3ccccc3-n3c(O)cc(C)c3O)CCC(OC)C34C5CC6C(OC)CC(O)(C5C6OC)C(O)(C(OC)C23)C14` (stereo unspecified) [CAS_21019-30-7], the Ki [3] is reported as > 10000 nM and 6400 nM and the Ki [1] is reported as greater than 10000 nM.

In the case of `Ic1ccc(C2CC3CCC2N3)cn1` (stereo unspecified) [IPH], the Ki [3] is reported as 0.15 nM, the Ki [1] is reported as 0.11 nM and 0.15 nM and the Ki [2] is reported as 0.18 nM and 0.98 nM. It also gave a Ki [4] of 0.33 nM.

Compound `CNC1(C)C2CCC(C2)C1(C)C` (stereo unspecified) [Methyl-(2,3,3-trimethyl-bicyclo[2.2.1]hept-2-yl)-amine(Mecamylamine)] has a Ki [3] greater than 10000 nM and a Ki [1] greater than 10000 nM.

Reference: BindingDB's records for doi:10.1124/jpet.104.066787 (Georgetown University, 2004)
